Experimental data published in PMC10149214 (The Journal of Biological Chemistry, 2023).
Where “and” joins values, the source holds several entries; their conditions need not be identical. Identical values can stand only once.

Legend:
[1] = target: T1, ARAF^SSDD (Homo sapiens, UniProt P10398, G300S/Y301D/Y302D); experiment: TR-FRET kinase inhibition assay (MEK1 activation loop phosphorylation), ARAF^SSDD dimer; conditions: for Hill slope: four-parameter fit, ARAF^SSDD 10 nM, ATP 200 μM
T1 sequence (P10398 274-606 G300S/Y301D/Y302D): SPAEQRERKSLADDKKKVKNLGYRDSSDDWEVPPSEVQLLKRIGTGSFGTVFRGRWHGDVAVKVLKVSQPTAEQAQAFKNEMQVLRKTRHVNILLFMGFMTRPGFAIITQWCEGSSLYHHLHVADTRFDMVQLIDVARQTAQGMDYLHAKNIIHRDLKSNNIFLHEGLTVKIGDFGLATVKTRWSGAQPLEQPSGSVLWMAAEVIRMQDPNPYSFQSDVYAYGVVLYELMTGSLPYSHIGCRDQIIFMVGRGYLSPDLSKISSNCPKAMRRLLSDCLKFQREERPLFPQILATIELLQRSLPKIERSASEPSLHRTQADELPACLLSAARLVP

[2] = parameters: method as in PMID 28082416, PMID 25792358; conditions: cited from earlier work
[3] = target: BRAF^V600E (Homo sapiens, UniProt P15056, V600E); experiment: TR-FRET kinase inhibition assay (MEK1 activation loop phosphorylation), BRAF^V600E monomer
[4] = system: CRAF; parameters: method as in PMID 33355204; conditions: purified CRAF; reaction conditions not provided; cited from earlier work
[5] = target: BRAF^WT (Homo sapiens, UniProt P15056); experiment: TR-FRET kinase inhibition assay (MEK1 activation loop phosphorylation), BRAF^WT dimer
[6] = target: CRAF^SSDD (Homo sapiens, UniProt P04049, Y340D/Y341D); experiment: TR-FRET kinase inhibition assay (MEK1 activation loop phosphorylation), CRAF^SSDD dimer
[7] = target: CRAF^WT (Homo sapiens, UniProt P04049); experiment: TR-FRET kinase inhibition assay (MEK1 activation loop phosphorylation), CRAF^WT dimer

| Structure (SMILES) | IC50 [1] [nM] | Ki [1] [nM] | Inhibition of ARAF^SSDD at highest inhibitor concentration ([1]; 10 μM, the highest inhibitor concentration achievable in this assay) | Hill slope [1] | Brain penetration [2] | IC50 [3] [nM] | Ki [3] [nM] | Hill slope ([3]; four-parameter fit, BRAF^V600E 1 nM, ATP 200 μM) | IC50 [4] [nM] | IC50 [5] [nM] | Ki [5] [nM] | Hill slope ([5]; four-parameter fit, BRAF^WT 1 nM, ATP 200 μM) | IC50 [6] [nM] | Ki [6] [nM] | Hill slope ([6]; four-parameter fit, CRAF^SSDD 1 nM, ATP 200 μM) | Ki [7] [nM] | IC50 ([7]; IC50, CRAF^WT 4 nM, ATP 200 μM, WT MEK1 substrate 250 nM, mean ± SD) | Hill slope ([7]; four-parameter fit, CRAF^WT 4 nM, ATP 200 μM) |
| --- | --- | --- | --- | --- | --- | --- | --- | --- | --- | --- | --- | --- | --- | --- | --- | --- | --- | --- |
| C[C@@H](NC(=O)c1ncnc(N)c1Cl)c1ncc(C(=O)Nc2cc(C(F)(F)F)c(Cl)cn2)s1 [Tovorafenib] | > 3000 | > 40 | did not completely inhibit | −1.12 ± 0.42 | brain-penetrant | – | – | – | – | – | – | – | – | – | – | – | – | – |
| Cc1ccc(NC(=O)c2ccnc(C(F)(F)F)c2)cc1-c1cc(OCCO)nc(N2CCOCC2)c1 [Naporafenib, N-(3-(2-(2-Hydroxyethoxy)-6-morpholinopyridin-4-yl)-4-methylphenyl)-2-(trifluoromethyl)isonicotinamide] | 414 ± 186 | 5.71 ± 2.97 | – | −0.78 ± 0.05 | – | 49.2 ± 3 | 2.04 ± 0.83 | −0.96 ± 0.09 | 0.07 | 13.4 ± 0.3 | 0.13 ± 0.08 | −2.73 ± 0.23 | 3.64 ± 0.36 | 0.01 ± 0.001 | −3.03 ± 0.73 | 0.04 ± 0.03 | 3.7 nM and 3.66 nM | −2.57 ± 0.65 |
